Consider 19 molecules from ChEMBL document CHEMBL4257560, “Synthesis and antiviral activity of camphor-based 1,3-thiazolidin-4-one and thiazole derivatives as Orthopoxvirus-reproduction inhibitors” (Medchemcomm, 2018).

The subject of one data set is Vaccinia virus. As to the kind of experiment: Antiviral activity against Vaccinia virus Copenhagen infected in African green monkey Vero cells assessed as inhibition of viral reproduction after 4 days by neural red dye-based assay. Type of data set: functional, organism-based, Orthopoxvirus vaccinia.
Data set [1] in a line: Cytotoxicity against African green monkey Vero cells after 4 days by neural red dye-based assay. The format is cell-based. To be noted: chlorocebus sabaeus, read-out: TC50.
A short description of data set [2]: Selectivity index, ratio of TC50 for African green monkey Vero cells to IC50 for Vaccinia virus Copenhagen. The conditions noted are these: read-out: Selectivity Index. Type of data set: toxicity.
Where [3] appears, read: Orthopoxvirus vaccinia, Copenhagen, Vero, 96 h, read-out: IC50.

Take `CC1CCN(CCC(=O)N[C@@H]2C[C@H]3CC[C@]2(C)C3(C)C)CC1`: in the data set on Vaccinia virus (setting [3]), the IC50 – broadly, the midpoint of a concentration-inhibition curve – amounted to 2.5 µM.
On to `CC1(C)[C@@H]2CC[C@@]1(C)/C(=N/N=C1/NC(=O)/C(=C/c3ccccc3)S1)C2`, for which the half-maximal inhibitory concentration (IC50) in the data set with Vaccinia virus (setting [3]) amounted to 5.2 µM. The CC50 at 96 h in data set [1] turned out to be 14.5 µM. In addition, the selectivity ratio in data set [2] amounted to 3.
`CC1(C)[C@@H]2CC[C@@]1(C)/C(=N/N=C1\SCC(=O)N1Cc1ccccc1)C2`: in the data set with Vaccinia virus (vero), the IC50 result is reported as “Not Active”. Besides, the CC50 at 96 h in data set [1] is 288 µM.
Turning to `CC1(C)[C@@H]2CC[C@@]1(C)/C(=N/Nc1nc(-c3ccccc3)cs1)C2`, the half-inhibitory concentration (IC50) in the data set on Vaccinia virus (setting [3]) is 3.2 µM. In data set [1], the CC50 at 96 h worked out at 13.9 µM.
With `CC1(C)[C@@H]2CC[C@@]1(C)/C(=N/NC(N)=S)C2`, the IC50 with Vaccinia virus (setting [3]) came out at 17.7 µM. Also, the CC50 at 96 h in data set [1] came out at 225 µM. Also, the selectivity ratio in data set [2] was determined as 13.
Regarding `CC1(C)[C@@H]2CC[C@@]1(C)/C(=N/Nc1nc(-c3ccc([N+](=O)[O-])cc3)cs1)C2`, the IC50 entry in the data set with Vaccinia virus (vero) is on record as “Not Active”. Besides, the CC50 at 96 h in data set [1] turned out to be 261 µM.
In the case of `CC1(C)[C@@H]2CC[C@@]1(C)/C(=N/N=C1/NC(=S)CS1)C2`, the IC50 in the data set with Vaccinia virus (setting [3]) was 3.3 µM. Further, in data set [1], the CC50 at 96 h stood at 17.5 µM. In data set [2], the selectivity ratio is 5.
Take `CC(C)CCN1C(=O)CS/C1=N\N=C1/C[C@H]2CC[C@]1(C)C2(C)C`: the IC50 result with Vaccinia virus (vero) is recorded as “Not Active”. Besides, the CC50 at 96 h in data set [1] came out at 37.5 µM.
With `COc1ccc(-c2csc(N/N=C3\C[C@H]4CC[C@]3(C)C4(C)C)n2)cc1`, the IC50 in the data set with Vaccinia virus (setting [3]) turned out to be 3.7 µM. For the same molecule, in data set [1], the CC50 at 96 h stood at 93.6 µM. Besides, the selectivity ratio in data set [2] worked out at 26.
Regarding `Cc1ccc(-c2csc(N/N=C3\C[C@H]4CC[C@]3(C)C4(C)C)n2)cc1`, the IC50 in the data set on Vaccinia virus (setting [3]) worked out at 4.5 µM. The CC50 at 96 h in data set [1] was determined as 13.7 µM. In addition, in data set [2], the selectivity ratio worked out at 3.
As for `CC1(C)[C@@H]2CC[C@@]1(C)/C(=N/Nc1nc(-c3ccc(Br)cc3)cs1)C2`, the IC50 in the data set on Vaccinia virus (setting [3]) amounted to 2.4 µM. For the same molecule, the CC50 at 96 h in data set [1] was determined as 77.1 µM. Moreover, the selectivity ratio in data set [2] is 32.
Take `CC1(C)[C@@H]2CC[C@@]1(C)/C(=N/Nc1nc(-c3ccc(F)cc3)cs1)C2`: the IC50 entry in the data set with Vaccinia virus (vero) is recorded as “Not Active”. The CC50 at 96 h in data set [1] was 176 µM.
As to `CC1(C)[C@H]2CC[C@]1(C)[C@H](OC(=O)CCN1CCOCC1)C2`, in the data set on Vaccinia virus (setting [3]), the IC50 is 3.5 µM.
On to `Cc1ccc(/C=C2\S/C(=N\N=C3/C[C@H]4CC[C@]3(C)C4(C)C)NC2=O)cc1` (stereo in doubt), for which, in the data set with Vaccinia virus (setting [3]), the IC50 worked out at 9.5 µM. Further, in data set [1], the CC50 at 96 h was 120 µM. Further, in data set [2], the selectivity ratio was 13.
The corresponding values for `CCCCN1C(=O)CS/C1=N\N=C1/C[C@H]2CC[C@]1(C)C2(C)C` are 3.2 µM, 25.2 µM and 8.
With `CC1(C)[C@@H]2CC[C@@]1(C)/C(=N/Nc1nc(-c3ccc(Cl)cc3)cs1)C2`, in the data set with Vaccinia virus (setting [3]), the IC50 stood at 2.7 µM. The CC50 at 96 h in data set [1] was 64.1 µM. Moreover, the selectivity ratio in data set [2] is 24.
As to `Nc1ccn(C[C@@H](CO)OCP(=O)(O)O)c(=O)n1` [CIDOFOVIR], the IC50 in the data set with Vaccinia virus (setting [3]) worked out at 40 µM. The CC50 at 96 h in data set [1] was 475 µM. In data set [2], the selectivity ratio came to 12.
Regarding `C=CCN1C(=O)CS/C1=N\N=C1/C[C@H]2CC[C@]1(C)C2(C)C`, the IC50 with Vaccinia virus (setting [3]) was 14.4 µM. Moreover, the CC50 at 96 h in data set [1] was found to be 164 µM. Moreover, the selectivity ratio in data set [2] is 11.
With `CC1(C)[C@@H]2CC[C@@]1(C)/C(=N/N=C1/NC(=O)CS1)C2`, in the data set with Vaccinia virus (vero), the IC50 result is given as “Not Active”. In data set [1], the CC50 at 96 h amounted to 305 µM.
